The values below come from ChEMBL document CHEMBL3217494, “Selective inhibition of EGFR and VEGFR2 tyrosine kinases controlled by a boronic acid substituent on 4-anilinoquinazolines” (Medchemcomm, 2010).

A word on the IC50: it is the midpoint of a concentration-inhibition curve.

In assay [1] the target is T1, Epidermal growth factor receptor (Homo sapiens, UniProt P00533). Kind of assay: Inhibition of EGFR catalytic domain (unknown origin) assessed as reduction of poly(Glu:Tyr) substrate phosphorylation after 20 mins by ELISA. In general terms: An ELISA detects its analyte on a solid surface through an enzyme-linked reagent.
T1 sequence (P00533 whole entry, the tested form may be a part): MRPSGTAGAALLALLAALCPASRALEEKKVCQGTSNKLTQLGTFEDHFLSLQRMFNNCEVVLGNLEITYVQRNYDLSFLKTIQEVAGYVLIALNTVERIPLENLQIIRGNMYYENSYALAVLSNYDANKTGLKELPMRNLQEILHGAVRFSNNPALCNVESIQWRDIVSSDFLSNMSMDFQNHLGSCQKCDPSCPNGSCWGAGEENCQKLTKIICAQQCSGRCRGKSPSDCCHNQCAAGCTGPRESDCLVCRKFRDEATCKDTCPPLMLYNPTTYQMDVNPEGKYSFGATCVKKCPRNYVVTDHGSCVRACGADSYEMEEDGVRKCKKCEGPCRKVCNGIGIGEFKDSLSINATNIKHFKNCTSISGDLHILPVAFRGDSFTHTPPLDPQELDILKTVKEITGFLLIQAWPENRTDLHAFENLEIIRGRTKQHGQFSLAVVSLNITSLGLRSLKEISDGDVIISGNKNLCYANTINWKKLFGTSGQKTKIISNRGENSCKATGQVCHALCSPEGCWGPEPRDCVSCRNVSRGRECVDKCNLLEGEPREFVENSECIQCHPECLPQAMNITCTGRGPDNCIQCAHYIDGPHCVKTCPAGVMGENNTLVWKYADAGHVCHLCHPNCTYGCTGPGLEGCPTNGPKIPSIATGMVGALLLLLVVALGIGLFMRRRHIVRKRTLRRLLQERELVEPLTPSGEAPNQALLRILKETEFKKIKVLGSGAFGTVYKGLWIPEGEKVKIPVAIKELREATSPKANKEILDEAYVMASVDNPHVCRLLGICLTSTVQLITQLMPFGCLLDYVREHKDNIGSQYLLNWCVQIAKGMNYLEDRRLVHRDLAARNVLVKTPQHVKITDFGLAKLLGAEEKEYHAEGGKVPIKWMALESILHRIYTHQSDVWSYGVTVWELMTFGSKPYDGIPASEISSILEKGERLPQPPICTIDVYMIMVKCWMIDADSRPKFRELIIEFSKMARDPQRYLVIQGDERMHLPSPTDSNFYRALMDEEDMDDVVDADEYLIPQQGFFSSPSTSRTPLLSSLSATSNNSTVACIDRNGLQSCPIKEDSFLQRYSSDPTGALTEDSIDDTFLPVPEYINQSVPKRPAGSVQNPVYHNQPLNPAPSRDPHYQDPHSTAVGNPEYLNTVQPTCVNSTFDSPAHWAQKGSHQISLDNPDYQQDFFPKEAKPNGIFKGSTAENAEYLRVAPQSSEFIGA
For assay [2], the target named is Receptor tyrosine-protein kinase erbB-2 (Homo sapiens, UniProt P04626). Kind of assay: Inhibition of HER2 catalytic domain (unknown origin) assessed as reduction of poly(Glu:Tyr) substrate phosphorylation after 20 mins by ELISA.
Chain of Receptor tyrosine-protein kinase erbB-2 (P04626 whole entry, the tested form may be a part): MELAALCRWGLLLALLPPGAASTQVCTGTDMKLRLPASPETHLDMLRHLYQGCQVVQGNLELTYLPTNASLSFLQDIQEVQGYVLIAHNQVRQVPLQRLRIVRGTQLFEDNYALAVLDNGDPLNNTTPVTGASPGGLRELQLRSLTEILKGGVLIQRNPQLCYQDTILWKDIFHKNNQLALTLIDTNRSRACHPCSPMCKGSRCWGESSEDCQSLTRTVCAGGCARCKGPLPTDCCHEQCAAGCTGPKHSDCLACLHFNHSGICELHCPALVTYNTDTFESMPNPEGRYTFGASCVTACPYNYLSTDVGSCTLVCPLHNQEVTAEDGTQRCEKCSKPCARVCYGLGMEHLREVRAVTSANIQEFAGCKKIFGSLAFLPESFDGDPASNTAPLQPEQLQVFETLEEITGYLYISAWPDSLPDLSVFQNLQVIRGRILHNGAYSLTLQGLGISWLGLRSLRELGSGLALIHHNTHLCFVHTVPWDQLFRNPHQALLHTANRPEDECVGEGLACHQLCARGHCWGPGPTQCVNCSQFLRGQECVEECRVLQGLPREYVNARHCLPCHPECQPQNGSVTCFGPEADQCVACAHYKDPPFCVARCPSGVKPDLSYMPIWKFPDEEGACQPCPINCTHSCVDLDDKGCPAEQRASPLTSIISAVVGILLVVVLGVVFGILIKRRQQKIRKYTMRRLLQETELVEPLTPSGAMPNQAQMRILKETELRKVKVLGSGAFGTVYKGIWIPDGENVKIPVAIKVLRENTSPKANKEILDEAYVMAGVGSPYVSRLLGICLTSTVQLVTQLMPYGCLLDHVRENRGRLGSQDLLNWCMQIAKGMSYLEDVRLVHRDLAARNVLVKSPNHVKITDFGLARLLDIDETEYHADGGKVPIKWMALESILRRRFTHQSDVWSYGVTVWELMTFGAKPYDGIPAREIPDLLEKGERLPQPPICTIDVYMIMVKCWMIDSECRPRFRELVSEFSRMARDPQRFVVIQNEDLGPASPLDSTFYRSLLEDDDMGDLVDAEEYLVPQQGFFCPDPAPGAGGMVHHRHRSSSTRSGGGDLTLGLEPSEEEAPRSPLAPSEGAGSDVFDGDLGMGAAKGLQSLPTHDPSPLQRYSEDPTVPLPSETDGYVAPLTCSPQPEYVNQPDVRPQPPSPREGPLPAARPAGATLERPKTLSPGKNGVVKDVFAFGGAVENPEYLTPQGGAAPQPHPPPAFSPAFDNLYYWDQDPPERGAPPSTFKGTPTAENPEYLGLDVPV
Assay [3] concerns the target Vascular endothelial growth factor receptor 1 (Homo sapiens, UniProt P17948). In words: Inhibition of Flt-1 catalytic domain (unknown origin) assessed as reduction of poly(Glu:Tyr) substrate phosphorylation after 20 mins by ELISA.
Assay [4] concerns the target T2, Vascular endothelial growth factor receptor 2 (Homo sapiens, UniProt P35968). In words: Inhibition of KDR catalytic domain (unknown origin) assessed as reduction of poly(Glu:Tyr) substrate phosphorylation after 20 mins by ELISA.
Assay [5] addresses T1, Epidermal growth factor receptor. In words: Inhibition of EGF-induced EGFR autophosphorylation in human A431 cells at 1 uM by immunoblot analysis. Format: cell-based. The following applies: A-431. A general note: In western blotting, separated proteins are transferred to a membrane and probed.
Assay [6] shares this target. In words: Inhibition of EGFR in human A431 cells assessed as decrease in EGF-induced ERK phosphorylation at 1 uM by immunoblot analysis. Format: cell-based. The following applies: A-431.
Assay [7] shares this target. Kind of assay: Inhibition of EGFR in human A431 cells assessed as decrease in EGF-induced Akt phosphorylation at 1 uM by immunoblot analysis. Format: cell-based. To be noted: A-431.
In assay [8] the target is T2, Vascular endothelial growth factor receptor 2. In words: Inhibition of VEGF-induced KDR phosphorylation in human HUVEC cells at 1 uM by immunoblot analysis. Format: cell-based.

Activity calls are given as the source filed them. No cut-off for these calls is given here.

T2 sequence (P35968 whole entry, the tested form may be a part): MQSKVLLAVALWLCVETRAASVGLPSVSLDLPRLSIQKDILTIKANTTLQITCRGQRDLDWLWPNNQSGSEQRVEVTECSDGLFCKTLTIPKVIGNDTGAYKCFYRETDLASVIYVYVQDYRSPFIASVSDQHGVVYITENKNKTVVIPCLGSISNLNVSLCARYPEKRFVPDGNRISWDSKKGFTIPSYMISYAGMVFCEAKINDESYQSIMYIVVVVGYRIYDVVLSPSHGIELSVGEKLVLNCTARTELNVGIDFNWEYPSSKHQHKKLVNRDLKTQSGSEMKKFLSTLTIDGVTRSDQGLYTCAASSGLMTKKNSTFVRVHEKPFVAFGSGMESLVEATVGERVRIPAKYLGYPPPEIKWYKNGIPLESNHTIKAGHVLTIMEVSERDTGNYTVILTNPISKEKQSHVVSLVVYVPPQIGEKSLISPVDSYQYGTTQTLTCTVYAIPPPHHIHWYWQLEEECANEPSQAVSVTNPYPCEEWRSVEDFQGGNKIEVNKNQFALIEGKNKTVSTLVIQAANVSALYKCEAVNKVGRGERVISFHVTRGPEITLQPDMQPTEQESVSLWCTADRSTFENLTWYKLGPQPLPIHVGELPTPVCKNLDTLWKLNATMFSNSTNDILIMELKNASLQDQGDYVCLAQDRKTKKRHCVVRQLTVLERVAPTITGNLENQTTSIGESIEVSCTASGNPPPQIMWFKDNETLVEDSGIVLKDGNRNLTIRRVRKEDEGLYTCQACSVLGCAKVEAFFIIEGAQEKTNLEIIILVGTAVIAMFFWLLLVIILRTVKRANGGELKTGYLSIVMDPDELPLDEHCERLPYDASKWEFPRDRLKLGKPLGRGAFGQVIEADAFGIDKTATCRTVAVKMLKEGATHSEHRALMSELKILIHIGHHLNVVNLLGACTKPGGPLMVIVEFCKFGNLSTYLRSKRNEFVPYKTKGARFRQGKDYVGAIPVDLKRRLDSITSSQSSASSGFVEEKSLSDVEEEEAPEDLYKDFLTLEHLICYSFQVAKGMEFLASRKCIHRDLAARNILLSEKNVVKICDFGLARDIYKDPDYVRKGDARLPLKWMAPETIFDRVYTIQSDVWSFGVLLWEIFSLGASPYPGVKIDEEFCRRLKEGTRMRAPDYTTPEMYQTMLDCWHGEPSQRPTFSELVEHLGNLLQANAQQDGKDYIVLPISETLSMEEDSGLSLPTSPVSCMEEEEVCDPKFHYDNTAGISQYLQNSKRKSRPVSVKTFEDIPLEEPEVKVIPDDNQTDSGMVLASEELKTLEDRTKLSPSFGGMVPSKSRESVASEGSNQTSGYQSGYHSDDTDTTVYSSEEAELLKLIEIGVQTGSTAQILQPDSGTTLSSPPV

Regarding `COCCOc1cc2ncnc(Nc3ccc(B(O)O)cc3)c2cc1OC`, the IC50 in assay [1] was over 1000 nM; in assay [2], over 1000 nM; in assay [3], over 1000 nM; in assay [4] it was 860 nM. Also, the inhibition entry in assay [5], in assay [6] and in assay [7] was “inactive” each time. In addition, the inhibition result in assay [8] is “Active”.
Take `OB(O)c1ccc2ncnc(Nc3cccc(Cl)c3)c2c1`: the 50% inhibitory concentration (IC50) is 650 nM in assay [1], over 1000 nM in assay [2], over 1000 nM in assay [3] and over 1000 nM in assay [4]. For the same compound, the inhibition entry in assay [5], in assay [6] and in assay [7] was “Active” in each case.
As for `COc1cc2ncnc(Nc3ccc(F)c(Cl)c3)c2cc1B(O)O`, the half-inhibitory concentration (IC50) in assay [1] was 510 nM; in assay [2] it was over 1000 nM; in assay [3], over 1000 nM; in assay [4], over 1000 nM. Besides, the inhibition entry in assay [5], in assay [6] and in assay [7] was “Active” in each case.
As for `CC1(C)OB(c2ccc3ncnc(Nc4cccc(Cl)c4)c3c2)OC1(C)C`, the 50% inhibitory concentration (IC50) in assay [1] was 590 nM; in assay [2], over 1000 nM; in assay [3], over 1000 nM; in assay [4] it was over 1000 nM. The inhibition result in assay [5], in assay [6] and in assay [7] was “Active” in each case.
For the compound `COc1cc2ncnc(Nc3ccc(F)c(Cl)c3)c2cc1B1OC(C)(C)C(C)(C)O1`, the IC50 was 520 nM in assay [1], over 1000 nM in assay [2], over 1000 nM in assay [3] and over 1000 nM in assay [4]. Also, the inhibition result in assay [5], in assay [6] and in assay [7] was “Active” throughout.
In the case of `CC1(C)OB(c2ccc3ncnc(Nc4ccc(F)c(Cl)c4)c3c2)OC1(C)C`, the IC50 in assay [1] was 570 nM; in assay [2], over 1000 nM; in assay [3], over 1000 nM; in assay [4], over 1000 nM. Moreover, the inhibition result in assay [5], in assay [6] and in assay [7] was “Active” in each case.
`COCCOc1cc2ncnc(Nc3ccc(B(O)O)cc3)c2cc1OCCOC`: the IC50 in assay [1] was over 1000 nM; in assay [2], over 1000 nM; in assay [3], over 1000 nM; in assay [4], 37 nM. In addition, the inhibition result in assay [5], in assay [6] and in assay [7] was “inactive” in each case. Besides, the inhibition result in assay [8] is “Active”.
Take `COc1cc2ncnc(Nc3cccc(B(O)O)c3)c2cc1OC`: the IC50 was over 1000 nM in assay [1], over 1000 nM in assay [2], over 1000 nM in assay [3] and 390 nM in assay [4]. For the same compound, the inhibition result in assay [5], in assay [6], in assay [7] and in assay [8] was “inactive” in each case.
Turning to `COc1cc2ncnc(Nc3cccc(Cl)c3)c2cc1B1OC(C)(C)C(C)(C)O1`, the IC50 in assay [1] is 490 nM; in assay [2], over 1000 nM; in assay [3], over 1000 nM; in assay [4] it was over 1000 nM. Further, the inhibition entry in assay [5], in assay [6] and in assay [7] was “Active” each time.
For the compound `O=C(Nc1cccc(C(F)(F)F)c1)c1ccccc1NCc1ccncc1`, the IC50 in assay [2] is over 1000 nM.
For `OB(O)c1ccc2ncnc(Nc3ccc(F)c(Cl)c3)c2c1`, the IC50 in assay [1] was 800 nM; in assay [2] it was over 1000 nM; in assay [3], over 1000 nM; in assay [4], over 1000 nM. In addition, the inhibition entry in assay [5], in assay [6] and in assay [7] was “Active” in each case.
Take `COCCOc1cc2ncnc(Nc3cccc(B(O)O)c3)c2cc1OC`: the 50% inhibitory concentration (IC50) in assay [1] was over 1000 nM; in assay [2], over 1000 nM; in assay [3] it was over 1000 nM; in assay [4], 180 nM. In addition, the inhibition entry in assay [5], in assay [6] and in assay [7] was “inactive” throughout. For the same compound, the inhibition result in assay [8] was “Active”.
As to `COc1cc2ncnc(Nc3cccc(Cl)c3)c2cc1B(O)O`, the IC50 in assay [1] was 460 nM; in assay [2] it was over 1000 nM; in assay [3] it was over 1000 nM; in assay [4], over 1000 nM. In addition, the inhibition entry in assay [5], in assay [6] and in assay [7] was “Active” each time.
For the compound `COc1cc2ncnc(Nc3ccc(B(O)O)cc3)c2cc1OC`, the IC50 in assay [1] is over 1000 nM; in assay [2] it was over 1000 nM; in assay [3], over 1000 nM; in assay [4], 36 nM. Also, the inhibition entry in assay [5], in assay [6], in assay [7] and in assay [8] was “inactive” each time.
Turning to `COCCOc1cc2ncnc(Nc3cccc(B(O)O)c3)c2cc1OCCOC`, the IC50 in assay [1] is over 1000 nM; in assay [2], over 1000 nM; in assay [3], over 1000 nM; in assay [4], 190 nM. Moreover, the inhibition entry in assay [5], in assay [6] and in assay [7] was “inactive” throughout. In addition, the inhibition entry in assay [8] was “Active”.
